PubChem BioAssay AID1918996 (Molecular Pharmacology Branch, DTP, NCI, 2023)
Where “and” joins values, the source holds several entries; their conditions need not be identical. Equal values may be shown once.

Tested on: 349418-098-R-PDC complex spheroid growth
Experiment: Anticancer human tumor 349418-098-R-PDC patient-derived lung adenocarcinoma cell line growth inhibition [AhR]
Conditions: for viability, T/C: stronger effect = lower value
How it was run: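 Spheroids combined tumor cells with HUVEC endothelial cells and human MSCs as stroma. AhR antagonists were paired with standard or investigational drugs, each dosed in half-log steps down from near clinical Cmax, or from 10 microM where Cmax was unknown.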

[1] = curve of first compound, second compound 0.1 µM
[2] = curve of first compound, second compound 0.316 µM
[3] = curve of first compound, second compound 1 µM
[4] = curve of first compound, second compound 3.16 µM
[5] = curve of first compound, second compound 10 µM
[6] = second compound 0.1 µM, first compound 0.0316 µM
[7] = second compound 0.1 µM, first compound 0.1 µM
[8] = second compound 0.1 µM, first compound 0.316 µM
[9] = second compound 0.1 µM, first compound 1 µM
[10] = second compound 0.1 µM, first compound 3.16 µM
[11] = second compound 0.1 µM, first compound 10 µM
[12] = second compound 0.316 µM, first compound 0.0316 µM
[13] = second compound 0.316 µM, first compound 0.1 µM
[14] = second compound 0.316 µM, first compound 0.316 µM
[15] = second compound 0.316 µM, first compound 1 µM
[16] = second compound 0.316 µM, first compound 3.16 µM
[17] = second compound 0.316 µM, first compound 10 µM
[18] = second compound 1 µM, first compound 0.0316 µM
[19] = second compound 1 µM, first compound 0.1 µM
[20] = second compound 1 µM, first compound 0.316 µM
[21] = second compound 1 µM, first compound 1 µM
[22] = second compound 1 µM, first compound 3.16 µM
[23] = second compound 1 µM, first compound 10 µM
[24] = second compound 3.16 µM, first compound 0.0316 µM
[25] = second compound 3.16 µM, first compound 0.1 µM
[26] = second compound 3.16 µM, first compound 0.316 µM
[27] = second compound 3.16 µM, first compound 1 µM
[28] = second compound 3.16 µM, first compound 3.16 µM
[29] = second compound 3.16 µM, first compound 10 µM
[30] = second compound 10 µM, first compound 0.0316 µM
[31] = second compound 10 µM, first compound 0.1 µM
[32] = second compound 10 µM, first compound 0.316 µM
[33] = second compound 10 µM, first compound 1 µM
[34] = second compound 10 µM, first compound 3.16 µM
[35] = second compound 10 µM, first compound 10 µM
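Note: spheroids exposed to agents for seven days before luminescence viability read.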
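Throughout, for viability, T/C: spheroids also contain HUVEC endothelial cells and human MSC stroma.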

| SMILES | IC50 [1] [nM] | IC50 [2] [nM] | IC50 [3] [nM] | IC50 [4] [nM] | IC50 [5] [nM] | viability, T/C [6] [%] | viability, T/C [7] [%] | viability, T/C [8] [%] | viability, T/C [9] [%] | viability, T/C [12] [%] | viability, T/C [13] [%] | viability, T/C [14] [%] | viability, T/C [15] [%] | viability, T/C [18] [%] | viability, T/C [19] [%] | viability, T/C [20] [%] | viability, T/C [21] [%] | viability, T/C [24] [%] | viability, T/C [25] [%] | viability, T/C [26] [%] | other results |
| --- | --- | --- | --- | --- | --- | --- | --- | --- | --- | --- | --- | --- | --- | --- | --- | --- | --- | --- | --- | --- | --- |
| CC(C)c1c(-c2ccccc2)nc2c(C#N)c[nH]n2c1=O + CC(CO)NC(=O)c1cc(-c2ccc(Cl)cc2)nn(-c2cnn(C)c2)c1=O | > 10000 | > 10000 | > 10000 | > 10000 | 170 | 91.8 | 66.8 | 98.2 | 68.5 | 66.9 | 93.3 | 67.7 | 78.7 | 91.3 | 70.7 | 88.3 | 67.1 | 70.3 | 86.2 | 71.8 | viability, T/C [10]: 77%; viability, T/C [11]: 78%; viability, T/C [16]: 85.7%; viability, T/C [17]: 60.8%; viability, T/C [22]: 58.2%; viability, T/C [23]: 70.3%; viability, T/C [27]: 77.2%; viability, T/C [28]: 56.4%; viability, T/C [29]: 60.4%; viability, T/C [30]: 54.3%; viability, T/C [31]: 55.3%; viability, T/C [32]: 46.5%; viability, T/C [33]: 45%; viability, T/C [34]: 43.6%; viability, T/C [35]: 45.5% |
| CCN(c1cc(-c2ccc(CN3CCOCC3)cc2)cc(C(=O)NCc2c(C)cc(C)[nH]c2=O)c1C)C1CCOCC1 |  |  |  |  |  |  |  |  |  |  |  |  |  |  |  |  |  |  |  |  | viability, T/C (compound 0.00949 µM): 111% and 107% and 122%; viability, T/C (compound 0.03 µM): 109% and 98.9% and 71.2%; viability, T/C (compound 0.0949 µM): 105% and 81.2% and 91.1%; viability, T/C (compound 0.3 µM): 108% and 64.7% and 101%; viability, T/C (compound 0.949 µM): 99.1% and 66.3% and 69.3%; viability, T/C (compound 3 µM): 94% and 69.9% and 88.5%; IC50 (curve of compound): > 3000 nM |
| COc1cc(C2c3cc4c(cc3C(OC3OC5COC(C)OC5C(O)C3O)C3COC(=O)C23)OCO4)cc(OC)c1O (centres undefined) + Cc1cncc(-c2nc(NCCc3c[nH]c4ccccc34)c3ncn(C(C)C)c3n2)c1 | 476 | 384 | 426 | < 31.6 | < 31.6 | 97.8 | 99 | 62.4 | 24.9 | 103 | 86.5 | 58.3 | 19.1 | 93.3 | 90.9 | 59.6 | 20.9 | 24 | 19.2 | 14.8 | viability, T/C [10]: 9.98%; viability, T/C [11]: 4.8%; viability, T/C [16]: 8.45%; viability, T/C [17]: 5.08%; viability, T/C [22]: 9.01%; viability, T/C [23]: 6.23%; viability, T/C [27]: 10.2%; viability, T/C [28]: 7.3%; viability, T/C [29]: 4.57%; viability, T/C [30]: 1.7%; viability, T/C [31]: 1.71%; viability, T/C [32]: 1.45%; viability, T/C [33]: 1.18%; viability, T/C [34]: 1.04%; viability, T/C [35]: 1.29% |
| CC1COCCN1c1cc(C2(S(C)(=N)=O)CC2)nc(-c2ccnc3[nH]ccc23)n1 (centres undefined) |  |  |  |  |  |  |  |  |  |  |  |  |  |  |  |  |  |  |  |  | viability, T/C (compound 0.0316 µM): 101% and 113% and 96.1%; viability, T/C (compound 0.1 µM): 102% and 81.9% and 78.6%; viability, T/C (compound 0.316 µM): 102% and 125% and 74.4%; viability, T/C (compound 1 µM): 100% and 62.9% and 65.1%; viability, T/C (compound 3.16 µM): 73% and 40.4% and 28.4%; viability, T/C (compound 10 µM): 16.1% and 13.5% and 12.1%; IC50 (curve of compound): 5040 nM and 1510 nM and 1460 nM |
| CC1COCCN1c1cc(-c2ccnn2C)c2ccnc(-c3ccn[nH]3)c2n1 (centres undefined) + Cc1ccccc1N=Nc1ccc(NC(=O)c2ccnn2C)c(C)c1 | 71.3 | 102 | 72.5 | 70.7 | 39.1 | 61 | 47.9 | 13.9 | 10.5 | 81 | 50.3 | 15.6 | 10.4 | 78.6 | 39.4 | 15.8 | 11.3 | 76.2 | 40.5 | 18.6 | viability, T/C (second compound 0.1 µM, first compound 0.00316 µM): 84.5%; viability, T/C (second compound 0.1 µM, first compound 0.01 µM): 96.5%; viability, T/C (second compound 0.316 µM, first compound 0.00316 µM): 64.4%; viability, T/C (second compound 0.316 µM, first compound 0.01 µM): 96.8%; viability, T/C (second compound 1 µM, first compound 0.00316 µM): 107%; viability, T/C (second compound 1 µM, first compound 0.01 µM): 111%; viability, T/C (second compound 3.16 µM, first compound 0.00316 µM): 61.6%; viability, T/C (second compound 3.16 µM, first compound 0.01 µM): 78.2%; viability, T/C [27]: 11.9%; viability, T/C (second compound 10 µM, first compound 0.00316 µM): 60.4%; viability, T/C (second compound 10 µM, first compound 0.01 µM): 61.9%; viability, T/C [30]: 55.4%; viability, T/C [31]: 26.9%; viability, T/C [32]: 17.3%; viability, T/C [33]: 12.9% |
